Measured values published in the supplement of paper PMC10883282.
± gives the standard deviation of the averaged measurements.

Test system: KHOS-NP
Experiment: relative viability vs DMSO control (72 h) (fraction); higher = more viable cells
How it was run: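 Sarcoma cell lines were seeded in 384-well plates at densities set to reach 80–90% confluence. After 24 h, 2.5 µl of serially diluted compound was added (source plates 10 mM to 0.0002 mM), and plates were held 72 h at 37 °C, 5% CO2, with 0.1% DMSO vehicle and a 5 µM positive control. Relative viability came from ATPLite readings as percent growth, averaged over up to triplicate wells. Data were rescaled so full viability equals 1 and none equals 0.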

SMILES	relative viability (0.00017 µM)	relative viability (0.00051 µM)	relative viability (0.00152 µM)	relative viability (0.00457 µM)	relative viability (0.01372 µM)	relative viability (0.04115 µM)	relative viability (0.1235 µM)	relative viability (0.3704 µM)	relative viability (1.111 µM)	relative viability (3.333 µM)	relative viability (10 µM)	relative viability (2 pM)	relative viability (5 pM)	relative viability (15 pM)	relative viability (50 pM)	relative viability (0.00014 µM)	relative viability (0.00041 µM)	relative viability (0.0012 µM)	relative viability (0.0037 µM)	relative viability (0.011 µM)	relative viability (200 fM)	relative viability (600 fM)
Cc1ccc(F)c(NC(=O)Nc2ccc(-c3cccc4[nH]nc(N)c34)cc2)c1 [Linifanib]	1.1 ± 0.012	1.1 ± 0.016	1.09 ± 0.027	1.09 ± 0.024	1.05 ± 0.016	1.07 ± 0.015	1.052 ± 0.0063	1.05 ± 0.039	1.03 ± 0.037	0.968 ± 0.019	1.01 ± 0.059	–	–	–	–	–	–	–	–	–	–	–
C[C@]1(O)C[C@@H](c2nc(-c3ccc4ccc(-c5ccccc5)nc4c3)c3c(N)nccn32)C1 [Linsitinib]	1.11 ± 0.025	1.09 ± 0.011	1.07 ± 0.025	1.08 ± 0.011	1.08 ± 0.026	1.08 ± 0.012	1.08 ± 0.029	1.07 ± 0.05	1.06 ± 0.064	1.02 ± 0.027	0.8696 ± 0.0082	–	–	–	–	–	–	–	–	–	–	–
Cc1ccc(NC(=O)c2ccc(CN3CCN(C)CC3)cc2)cc1Nc1nc(-c2cccnc2)cs1 [Masitinib]	1.05 ± 0.026	1.05 ± 0.035	1.089 ± 0.0014	1.083 ± 0.01	1.06 ± 0.028	1.09 ± 0.025	1.04 ± 0.052	1.01 ± 0.024	0.857 ± 0.018	0.612 ± 0.051	0.185 ± 0.0074	–	–	–	–	–	–	–	–	–	–	–
CC1(C)CNc2cc(NC(=O)c3cccnc3NCc3ccncc3)ccc21 [Motesanib]	1.03 ± 0.03	1.04 ± 0.021	1.03 ± 0.021	1.01 ± 0.028	1.02 ± 0.037	1.02 ± 0.023	1.03 ± 0.013	1.03 ± 0.021	1 ± 0.021	0.973 ± 0.024	0.882 ± 0.048	–	–	–	–	–	–	–	–	–	–	–
CC(C)N1CCN(Cc2cnc(-c3cc(-c4cccc5[nH]ccc45)cc4[nH]ncc34)o2)CC1 [Nemiralisib]	1.01 ± 0.024	1.02 ± 0.024	1.02 ± 0.029	1.01 ± 0.03	1.01 ± 0.026	1.02 ± 0.013	1.02 ± 0.021	1.03 ± 0.018	1.04 ± 0.038	1.03 ± 0.038	1.01 ± 0.034	–	–	–	–	–	–	–	–	–	–	–
C=CC(=O)Nc1cccc(Oc2nc(Nc3ccc(N4CCN(C)CC4)cc3)nc3ccsc23)c1 [Olmutinib]	1.058 ± 0.01	1.06 ± 0.011	1.068 ± 0.0024	1.067 ± 0.0084	1.07 ± 0.019	1.08 ± 0.026	1.054 ± 0.0094	1.074 ± 0.0078	1.06 ± 0.017	1.04 ± 0.029	0.926 ± 0.081	–	–	–	–	–	–	–	–	–	–	–
CC(C)(C)c1cc(NC(=O)Nc2ccc(-c3cn4c(n3)sc3cc(OCCN5CCOCC5)ccc34)cc2)no1 [Quizartinib]	1.13 ± 0.012	1.1 ± 0.027	1.1 ± 0.019	1.08 ± 0.035	1.096 ± 0.0028	1.09 ± 0.013	1.069 ± 0.0099	1.07 ± 0.034	1.05 ± 0.025	0.998 ± 0.067	0.99 ± 0.032	–	–	–	–	–	–	–	–	–	–	–
CNC(=O)c1cc(Oc2ccc(NC(=O)Nc3ccc(Cl)c(C(F)(F)F)c3)c(F)c2)ccn1 [Regorafenib]	1.09 ± 0.013	1.11 ± 0.012	1.12 ± 0.019	1.12 ± 0.013	1.112 ± 0.0027	1.1 ± 0.016	0.787 ± 0.57	1.07 ± 0.018	0.938 ± 0.055	0.569 ± 0.014	0.238 ± 0.083	–	–	–	–	–	–	–	–	–	–	–
CO[C@H]1C[C@@H]2CC[C@@H](C)[C@@](O)(O2)C(=O)C(=O)N2CCCC[C@H]2C(=O)O[C@H]([C@H](C)C[C@@H]2CC[C@@H](OP(C)(C)=O)[C@H](OC)C2)CC(=O)[C@H](C)/C=C(\C)[C@@H](O)[C@@H](OC)C(=O)[C@H](C)C[C@H](C)/C=C/C=C/C=C/1C [Ridaforolimus]	1.11 ± 0.033	1.1 ± 0.011	1.09 ± 0.015	1.1 ± 0.016	1.08 ± 0.03	1.08 ± 0.033	1.07 ± 0.033	1.06 ± 0.045	1.07 ± 0.026	1.02 ± 0.032	1.01 ± 0.02	–	–	–	–	–	–	–	–	–	–	–
COCc1c(-c2cc3cc(C)cc(OC)c3s2)c2c(N)ncnn2c1CN1CCNC(=O)C1 [Rogaratinib]	1.09 ± 0.019	1.1 ± 0.014	1.08 ± 0.012	1.09 ± 0.0024	1.08 ± 0.032	1.06 ± 0.016	1.06 ± 0.018	1.06 ± 0.017	1.09 ± 0.023	1.04 ± 0.09	0.877 ± 0.031	–	–	–	–	–	–	–	–	–	–	–
N#CC[C@H](C1CCCC1)n1cc(-c2ncnc3[nH]ccc23)cn1 [Ruxolitinib]	1.04 ± 0.024	1.04 ± 0.028	1.05 ± 0.03	1.03 ± 0.036	1.02 ± 0.033	1.03 ± 0.038	1.015 ± 0.0094	0.995 ± 0.062	0.988 ± 0.044	0.9816 ± 0.0032	0.809 ± 0.031	–	–	–	–	–	–	–	–	–	–	–
Cc1cc(C)c(/C=C2\C(=O)Nc3ccccc32)[nH]1 [Semaxanib]	1.04 ± 0.035	1.04 ± 0.025	1.05 ± 0.028	1.05 ± 0.037	1.03 ± 0.041	1.05 ± 0.02	1.04 ± 0.03	1 ± 0.027	0.989 ± 0.027	1.002 ± 0.008	0.927 ± 0.025	–	–	–	–	–	–	–	–	–	–	–
Cc1nc(-c2cn3c(n2)-c2ccc(-c4cnn(C(C)(C)C(N)=O)c4)cc2OCC3)n(C(C)C)n1 [Taselisib]	1.04 ± 0.023	1.039 ± 0.003	1.03 ± 0.03	1.02 ± 0.018	1.042 ± 0.0077	1.01 ± 0.023	1.02 ± 0.02	1.03 ± 0.022	0.99 ± 0.035	0.948 ± 0.011	0.688 ± 0.0095	–	–	–	–	–	–	–	–	–	–	–
CN1CCC(COc2cnc(-c3cccc(Cn4nc(-c5cccc(C#N)c5)ccc4=O)c3)nc2)CC1 [Tepotinib]	1.09 ± 0.054	1.11 ± 0.024	1.11 ± 0.012	1.09 ± 0.013	1.08 ± 0.012	1.08 ± 0.026	1.07 ± 0.015	1.03 ± 0.023	1.01 ± 0.023	0.995 ± 0.021	0.975 ± 0.014	–	–	–	–	–	–	–	–	–	–	–
COc1cc2nccc(Oc3ccc(NC(=O)Nc4cc(C)on4)c(Cl)c3)c2cc1OC [Tivozanib]	1.08 ± 0.013	1.06 ± 0.016	1.06 ± 0.027	1.08 ± 0.021	1.074 ± 0.005	1.06 ± 0.034	1.09 ± 0.018	1.05 ± 0.031	1.06 ± 0.023	1.03 ± 0.027	0.719 ± 0.015	–	–	–	–	–	–	–	–	–	–	–
C[C@@H]1CCN(C(=O)CC#N)C[C@@H]1N(C)c1ncnc2[nH]ccc12 [Tofacitinib]	1.08 ± 0.037	1.092 ± 0.01	1.08 ± 0.031	1.09 ± 0.036	1.05 ± 0.034	1.07 ± 0.053	1.06 ± 0.049	1.05 ± 0.029	1.03 ± 0.011	1.02 ± 0.051	0.941 ± 0.015	–	–	–	–	–	–	–	–	–	–	–
COc1cc2c(cc1O)CCN[C@]21CS[C@@H]2c3c(OC(C)=O)c(C)c4c(c3[C@H](COC1=O)N1[C@@H]2[C@H]2c3c(cc(C)c(OC)c3O)C[C@@H]([C@@H]1O)N2C)OCO4 [Trabectedin]	–	–	–	–	–	–	–	–	–	–	–	1.11 ± 0.026	1.11 ± 0.03	1.11 ± 0.028	1.09 ± 0.018	1.04 ± 0.029	0.0507 ± 0.011	0.0847 ± 0.0079	0.102 ± 0.0031	0.0529 ± 0.0034	1.1 ± 0.03	1.12 ± 0.022
CC(=O)Nc1cccc(-n2c(=O)n(C3CC3)c(=O)c3c(Nc4ccc(I)cc4F)n(C)c(=O)c(C)c32)c1 [Trametinib]	1.08 ± 0.012	1.09 ± 0.014	1.05 ± 0.019	0.975 ± 0.048	0.532 ± 0.055	0.312 ± 0.013	0.278 ± 0.0054	0.275 ± 0.011	0.256 ± 0.0076	0.25 ± 0.014	0.231 ± 0.02	–	–	–	–	–	–	–	–	–	–	–
Cc1cc(Nc2ncnc3ccc(NC4=NC(C)(C)CO4)cc23)ccc1Oc1ccn2ncnc2c1 [Tucatinib]	1.09 ± 0.023	1.14 ± 0.021	1.13 ± 0.014	1.11 ± 0.029	1.09 ± 0.018	1.09 ± 0.025	1.12 ± 0.017	1.1 ± 0.017	1.12 ± 0.016	1.09 ± 0.02	1.11 ± 0.014	–	–	–	–	–	–	–	–	–	–	–
